Where two headings read alike, the source gives them in different places.
Tests used:
[1] = biological target: T1, CGRP receptor endogenously expressed in SK-N-MC cell membranes (Homo sapiens, UniProt O60894+Q16602); assay: Competition for [125I]CGRP binding (radioligand competition assay); details: 15 pM [125I]CGRP, read-out: mean Ki, inhibition of [125I]CGRP binding
T1 construct: endogenous in cells; host or cells: SK-N-MC human neuroblastoma cells (membrane homogenate or attached whole cells)
Procedure: SK-N-MC cell membrane homogenate serves as the receptor source. Human neuroblastoma SK-N-MC cells are used for in vitro assays because they endogenously express the CGRP receptor with an identical sequence to the cloned human CGRP receptor (Aiyar et al., 2001). Cells are grown at 37° C. in 5% CO2 in medium consisting of MEM with Earle's salts and L-glutamine supplemented with 10% fetal bovine serum to reach confluence. The cells are harvested by rinsing twice with phosphate-buffered saline and are incubated for 5-10 minutes at 4° C. in hypotonic lysis buffer consisting of 10 mM Tris (pH 7.4) and 5 mM EDTA. The cells are collected and transferred to polypropylene tubes and homogenized using a polytron. Homogenates are centrifuged at 32,000×g for 30 min. The pellets are resuspended in cold hypotonic lysis buffer with 0.1% mammalian protease inhibitor cocktail and assayed for protein concentration. The membrane homogenate is then aliquoted and stored at −80° C. until the day of assay.
The ability of Compound I to compete for the radiolabeled ([^125I]CGRP, Amersham Biosciences) endogenous peptide human alpha CGRP (hαCGRP) is measured using a radioligand competition assay. Compound I is first solubilized in and carried through serial dilutions using 100% DMSO. […] Protein bound radioactivity is measured using a gamma scintillation counter. […]

[2] = Pharmacokinetics in the rabbit after IV and IN administration; format: in vivo, New Zealand White rabbits
Procedure: The feasibility of nasal delivery was assessed in the IN rabbit model by comparing the plasma concentration-time profiles and pharmacokinetic parameters (Cmax, Tmax, AUC and bioavailability) for nasally delivered Compound I to that delivered by the IV route. The dosing solution concentration and delivery volume are included in the data tables for each study. Vehicle compositions are described in the footnotes below the table.
Groups of three male New Zealand White rabbits, ranging in weight from 3-3.5 kg, received a single dose of drug in one of the following treatments: 0.5 mg/kg IV bolus injection over 30 seconds, or 0.3-3 mg/kg IN administered with a syringe microsprayer. Prior to IN dosing, rabbits were lightly sedated to effect with the inhalant anesthetic, Sevoflurane. The rabbits regained consciousness in 2-5 min. Serial blood samples were collected in heparin-containing vacutainers at predose, 2, 5, 10, 15, 30 min and 1, 2, 4, 6, and 24 hours post-dose. Blood samples were immediately centrifuged at 4° C. and the separated plasma stored at −80° C. until further analysis by the LC/MS/MS assay.

[3] = test system: CGRP-induced dilation of ex vivo human intracranial arteries; assay: Schild analysis: inhibition of CGRP concentration-response curve in ex vivo human intracranial artery
Procedure: To assess functional antagonism against a range of CGRP concentrations, Compound I is pre-incubated with individual artery rings in the tissue bath and then a CGRP concentration-response curve is generated to achieve complete dilation (using multiple agonist and multiple antagonist doses). Higher concentrations of antagonist produce a ‘right-shift’ in the CGRP concentration-response curve, requiring greater concentrations of agonist to overcome the presence of antagonist and achieve full dilation. In short, wire mounted artery rings are pre-incubated with antagonist, then contracted with KCl (to mimic endogenous tone), and followed by addition of increasing concentrations of CGRP to achieve full relaxation.
Each wire mounted artery ring is pre-incubated for 30 min with a single concentration (0.1-30 nM) of the antagonist Compound I, then contracted with 10 mM KCl (to mimic endogenous tone), followed by addition of increasing concentrations of CGRP to achieve full relaxation. The KCl contraction is allowed to stabilize, such that total antagonist pretreatment time is approximately 45 min prior to application of CGRP.

[4] = Intravenous exposure in rats (reference for bioavailability); details: rat, in vivo, intravenous administration of 1 mg/kg, read-out: AUC0-24 h
[5] = male, New Zealand White, plasma, IV 0.5 mg/kg

SMILES: Cc1cc(C[C@@H](NC(=O)N2CCC(c3cc4ccccc4[nH]c3=O)CC2)C(=O)N2CCN(C3CCN(C)CC3)CC2)cc2cn[nH]c12 [Compound I, (R)—N-(3-(7-methyl-1H-indazol-5-yl)-1-(4-(1-methylpiperidin-4-yl)piperazin-1-yl)-1-oxopropan-2-yl)-4-(2-oxo-1,2-dihydroquinolin-3-yl)piperidine-1-carboxamide]
- Ki [1]: 0.0227 nM
- time drug was detected in plasma post-dose ([2]; IN): at least 6 h
- time drug was detected in plasma post-dose ([2]; IN, high dose): up to 24 hr
- Plasma levels ([2]; IN, measured within 5 min): > 10 nM
- MRT [2, 5]: 22.8 ± 9 min
- clearance [2, 5]: 7.9 ± 3 mL/min/kg
- half-life [2, 5]: 78 ± 15.6 min
- AUC ([2]; male, New Zealand White, plasma, IV 0.5 mg/kg, n = 3, Mean ± SD): 1.8 ± 0.58 µM·h
- Vd ([2]; male, New Zealand White, plasma, IV 0.5 mg/kg, read-out: Vss): 0.16 ± 0.01 L/kg
- Cmax ([2]; male, New Zealand White, plasma, inhaled or intranasal, 0.3 mg/kg, IN low dose 0.3 mg/kg (10 mg/ml), n = 3, Mean ± SD): 120 nM
- bioavailability ([2]; male, New Zealand White, plasma, inhaled or intranasal, 0.3 mg/kg, IN low dose 0.3 mg/kg, read-out: Bioavailability (F %)): 12.5 ± 6.56%
- Cmax ([2]; male, New Zealand White, plasma, inhaled or intranasal, 1 mg/kg, IN mid-dose 1.0 mg/kg (30 mg/ml), n = 3, Mean ± SD): 550 ± 260 nM
- bioavailability ([2]; male, New Zealand White, plasma, inhaled or intranasal, 1 mg/kg, IN mid-dose 1.0 mg/kg, read-out: Bioavailability (F %)): 18.8 ± 8.96%
- Cmax ([2]; male, New Zealand White, plasma, inhaled or intranasal, 3 mg/kg, IN high dose 3.0 mg/kg (100 mg/ml), n = 3, Mean ± SD): 2030 ± 1000 nM
- bioavailability ([2]; male, New Zealand White, plasma, inhaled or intranasal, 3 mg/kg, IN high dose 3.0 mg/kg, read-out: Bioavailability (F %)): 30.2 ± 10.8%
- Cmax ([2]; male, New Zealand White, plasma, inhaled or intranasal, 3 mg/kg, IN, range over 0.3, 1, and 3 mg/kg): 120 to 2000 nM
- bioavailability ([2]; male, New Zealand White, plasma, inhaled or intranasal, 3 mg/kg, IN, range over 0.3, 1, and 3 mg/kg, read-out: absolute bioavailability): 13 to 30%
- AUC ([2]; male, New Zealand White, plasma, inhaled or intranasal, IN high dose 3.0 mg/kg (100 mg/ml), n = 3, Mean ± SD): 3.27 ± 1.17 µM·h
- Tmax ([2]; male, New Zealand White, plasma, inhaled or intranasal, IN high dose 3.0 mg/kg, read-out: Tmax): 19.8 min
- AUC ([2]; male, New Zealand White, plasma, inhaled or intranasal, IN low dose 0.3 mg/kg (10 mg/ml), n = 3, Mean ± SD): 0.14 ± 0.07 µM·h
- Tmax ([2]; male, New Zealand White, plasma, inhaled or intranasal, IN low dose 0.3 mg/kg, read-out: Tmax): 15 min
- AUC ([2]; male, New Zealand White, plasma, inhaled or intranasal, IN mid-dose 1.0 mg/kg (30 mg/ml), n = 3, Mean ± SD): 0.69 ± 0.33 µM·h
- Tmax ([2]; male, New Zealand White, plasma, inhaled or intranasal, IN mid-dose 1.0 mg/kg, read-out: Tmax): 15 min
- Tmax ([2]; male, New Zealand White, plasma, inhaled or intranasal, IN, all doses studied, read-out: time to reach peak concentrations (Tmax)): 12 to 18 min
- Cmax ([2]; male, New Zealand White, plasma, iv, 0.5 mg/kg, IV 0.5 mg/kg, n = 3, Mean ± SD): 13700 ± 1800 nM
- Kb [3]: 0.091 nM
- AUC(0-t) [4]: 7.7 µM·h
